Reference: patent US8785445B2 (Array BioPharma Inc., priority 2008, dated 2014)

Molecular target: T1, human DP2 (Homo sapiens, UniProt Q9Y5Y4)
T1 construct: expressed in transfected cells; membranes prepared
T1 sequence (Q9Y5Y4 1-395): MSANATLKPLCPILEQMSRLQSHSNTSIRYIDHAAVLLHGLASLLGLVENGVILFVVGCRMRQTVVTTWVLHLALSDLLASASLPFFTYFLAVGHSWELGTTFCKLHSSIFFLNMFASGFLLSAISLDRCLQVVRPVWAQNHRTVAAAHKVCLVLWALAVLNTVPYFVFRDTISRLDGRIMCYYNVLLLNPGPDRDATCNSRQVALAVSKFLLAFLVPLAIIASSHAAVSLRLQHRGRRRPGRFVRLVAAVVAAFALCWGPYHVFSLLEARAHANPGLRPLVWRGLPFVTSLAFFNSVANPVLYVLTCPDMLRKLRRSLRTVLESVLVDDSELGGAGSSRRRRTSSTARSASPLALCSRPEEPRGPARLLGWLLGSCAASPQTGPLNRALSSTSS
Assay: DP-2 binding inhibition assay (3H-PGD2, membranes of DP2-expressing K562 cells)
Details: 4% HSA, read-out: EC50 (nM) 4% HSA
Summary of the method: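 Membranes from K562 clones stably expressing human DP2 were incubated 60 min at room temperature with 3H-PGD2 and compound, with 0.1% BSA, 1% HSA or 4% HSA, then filtered and counted.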

| Compound | EC50 [nM] |
| --- | --- |
| COc1ncccc1CCNC(=O)c1ccc(Oc2cc3c(cc2Cl)C(C(=O)O)CCO3)cc1 (centres unmarked) [Example 227, 6-chloro-7-(4-(2-(2-methoxypyridin-3-yl)ethylcarbamoyl)phenoxy) chroman-4-carboxylic acid] | 857 |
| CC(C)Oc1ncccc1CCNC(=O)c1ccc(Oc2cc3c(cc2Cl)C(C(=O)O)CCO3)cc1 (centres unmarked) [Example 228, 6-chloro-7-(4-(2-(2-isopropoxypyridin-3-yl)ethylcarbamoyl)phenoxy) chroman-4-carboxylic acid] | 195 |
